Experimental data taken from publication PMC9612231, “Antileishmanial Anthracene Endoperoxides: Efficacy In Vitro, Mechanisms and Structure-Activity Relationships” (Molecules, 2022).

Legend:
J774 macrophages = test: Cellular oxygen consumption of J774 cells (OxoPlates); assay type: cell-based, murine; details: 200 µM compound, 2 × 10^6 cells/mL
Text: (§1) The experimental data so far indicate that in more complex EP not only the endoperoxyl group contributes to its pharmacological actions. Therefore, mitochondria present in the parasites but also in the host cells could be either a trigger for activating pharmacological actions of these compounds or a target of EP-derived radicals generated at other sites in the cell. In a subsequent experiment, we tested the influence of AcEP and non-endoperoxidic analogs (Ac) on the mitochondrial oxygen consumption in LtP and J774 macrophages (Figure 9).
(§2) Oxygen consumption rates of LtP in complete BHI culture medium and J774 in PBS-gluc treated with AcEPs were measured using round-bottomed OxoPlates (OP96U, Precision Sensing GmbH, Regensburg, Germany). […] Then, the fluorescence of both calibration media was measured at a microplate reader (Perkin Elmer EnSpire, Rodgau, Germany) in a dual kinetic mode, using an excitation wavelength of 540 nm for both dyes and emission wavelengths of 650 nm for the indicator dye and 590 nm for the reference dye. The ratio of both fluorescence intensities (IR) was calculated for each well and averaged giving the two calibration constants k0 (oxygen-free) or k100 (air-saturated). […] Both fluorescence intensities of each well were determined in 5 min intervals over up to 40 min. Each compound was measured in quadruplicates. […]

LtP = test: Cellular oxygen consumption of LtP (OxoPlates); assay type: cell-based, Leishmania tarentolae; details: 200 µM compound, 140 × 10^6 cells/mL
Text: as §1, §2

## CC(C)(C)c1ccc2c(c1)C1(c3cccnc3)OOC2(c2cccnc2)c2ccccc21 (stereo not drawn) [mPyBuAcEP]
J774 macrophages
  Inhibition of mitochondrial oxygen consumption in J774 macrophages: more moderate
LtP
  Inhibition of mitochondrial oxygen consumption in LtP: interfered strongly

## CC(C)(C)c1ccc2c(-c3cccnc3)c3ccccc3c(-c3cccnc3)c2c1 [mPyBuAc]
LtP
  Inhibition of mitochondrial oxygen consumption in LtP: even stronger inhibition
